Experimental data reported in patent publication EP1092427B1, “Use of a peptide avoiding skin intolerance reactions, especially in cosmetic compositions” (L'ORÉAL, priority 1999, dated 2007).
Non-standard residues stand in square brackets, D forms with d. Residues, ends and D or L forms follow the SMILES beside them.

Tests used:
[1] = system: souris femelles Balb/C; test: TNCB contact hypersensitivity in mice, peptide applied topically in a water-in-oil cream (ear swelling); format: in vivo; conditions: peptide in water-in-oil cream applied on the zone to be sensitised 2 h before sensitisation; measured 24 h after challenge; positive controls 7×10^-2 mm
Procedure: (§1) L'étude est effectuée sur des souris femelles Balb/C âgées de 7 à 10 semaines.
(§2) La réaction de sensibilisation consiste à appliquer au pinceau 100 µl d'une solution à 0,15 % de TNCB dans un mélange acétone-huile d'olive (4:1) sur la peau rasée de l'abdomen des souris.
(§3) La réaction déclenchante est réalisée 7 jours après la réaction de sensibilisation. Cette réaction déclenchante consiste à appliquer sur les deux faces d'une oreille 10 microlitres d'une solution à 0,8 % de TNCB dans un véhicule constitué par le mélange acétone-huile d'olive déjà mentionné ci-dessus.
(§4) Sur l'autre oreille, on applique, pour comparaison, uniquement ce mélange d'acétone et d'huile d'olive.
(§5) On évalue l'intensité d'une éventuelle réaction d'hypersensibilité de contact par estimation de l'importance de l'oedème de l'oreille traitée par le TNCB, en comparaison avec l'oreille traitée par le seul véhicule. Pour cela, on mesure et compare l'épaisseur des oreilles à l'aide d'une vis micrométrique. Cette mesure est effectuée 24 heures après la réaction déclenchante.
On opère comme en a) ci-dessus, mais le peptide, incorporé dans une crème de type eau-dans-l'huile, est appliqué sur la zone à sensibiliser 2 heures avant la sensibilisation.

[2] = system: patients volontaires; test: Topical effect in human volunteers with nickel contact allergy (nickel sulfate patch test); format: in vivo, homme; conditions: out of 14 nickel-sensitised persons; cream with 100 µM peptide under occlusive dressing on back skin 2 h before 5 % nickel sulfate patch; read 24 h later
Procedure: Cette étude a été effectuée sur des patients volontaires âgés de 18 à 65 ans, chez lesquels une allergie de contact au nickel était suspectée. Ces patients étaient exempts d'autres maladies cutanées, et les résultats de cette étude montrent qu'ils n'avaient pas d'allergie aux constituants de la crème utilisée comme véhicule.
Au jour 0, on applique avec un pansement occlusif, sur des zones de la peau du dos, d'une part une crème contenant 100 µM du peptide de formule II, et d'autre part la crème seule, sans peptide, utilisée comme placebo.
Deux heures plus tard, on applique sur les mêmes zones de la peau, et aussi sur une zone adjacente non prétraitée, des patchs imprégnés de vaseline contenant du sulfate de nickel à une concentration de 5 %.
24 heures plus tard, on examine les patients. Ceux qui ont développé une réaction d'hypersensibilité de contact sur la zone traitée par le placebo (et aussi sur la zone adjacente n'ayant reçu que l'application de sel de nickel), et qui sont donc des personnes qui étaient déjà sensibilisées au nickel, sont au nombre de 14. Sur ces 14 personnes, 7 n'ont développé aucune réaction d'hypersensibilité de contact sur la zone traitée par le peptide.

[3] = system: souris femelles Balb/C; test: TNCB contact hypersensitivity in mice after a second sensitisation (tolerance test, ear swelling); format: in vivo
From the text: 14 jours après la fin de l'expérience décrite en a) ci-dessus, on soumet les mêmes souris à une nouvelle réaction de sensibilisation sur la peau rasée du dos, comme décrit en a).
7 jours plus tard, on effectue le test de déclenchement par application du TNCB sur l'oreille, et 24 heures plus tard, on mesure le degré de gonflement de l'oreille.
Cette seconde expérience a pour but de faire une distinction entre une éventuelle immunosuppression temporaire aspécifique et une tolérance immunologique spécifique.

[4] = system: souris femelles Balb/C; test: TNCB contact hypersensitivity in mice, peptide injected intravenously before sensitisation (ear swelling); format: in vivo
Procedure: as §1
On injecte une dose de 1,5 µg du peptide étudié (en solution dans du tampon PBS contenant 0,1 % de sérum de souris) dans une veine de la queue des souris 2 heures avant la réaction de sensibilisation.
as §2, §3, §4, §5
On applique également le TNCB sur l'oreille de souris témoins n'ayant pas été préalablement sensibilisée (témoins négatifs). […]

CC(=O)N[C@H](CCCCN)C(=O)N1CCC[C@@H]1C(=O)N[C@@H](C(N)=O)C(C)C [peptide de formule II, Ac-D-Lys-D-Pro-D-Val-NH2] (Ac-[dK]-[dP]-[dV]-NH2)
augmentation de l'épaisseur de l'oreille [1]: 3×10^-2 mm | personnes n'ayant développé aucune réaction d'hypersensibilité de contact sur la zone traitée par le peptide [2]: 7 | hypersensibilité de contact après une seconde dose sensibilisante de TNCB (result in words) ([3]; mice treated with peptide before the first sensitisation only): n'ont pas développé une hypersensibilité de contact | degré de gonflement de l'oreille ([3]; same mice re-sensitised with TNCB on the back 14 days after first experiment, no new peptide dose, challenge 7 days later, measured 24 h later, positive controls about 14×10^-2 mm, negative controls about 3,5×10^-2 mm): ~3,5×10^-2 mm | réaction d'hypersensibilité de contact (result in words) ([4]; 1,5 µg peptide i.v. 2 h before TNCB sensitisation): réduit fortement la réaction d'hypersensibilité de contact | augmentation de l'épaisseur de l'oreille ([4]; 1,5 µg peptide i.v. (tail vein) 2 h before sensitisation with 0,15 % TNCB, challenge day 7 with 0,8 % TNCB on ear, measured 24 h after challenge, ^-2 mm, negative controls about 1×10^-2 mm): ~2,5×10^-2 mm
